Results reported in patent US9227923B2, “Pesticidal carboxamides” (Bayer Intellectual Property GmbH, priority 2009, dated 2016).

Tests used:
[1] = tested on: Cucurbit Leaf Beetle (Aulacophora Femoralis); experiment: Test against cucurbit leaf beetle (Aulacophora femoralis), leaf dip; assay type: in vivo; conditions: active compound concentration of 100 ppm, second instar larvae, after 7 days; for pest or weed control at 100 ppm: Aulacophora, foliar, 168 h, read-out: insecticidal activity
Summary of the method: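 Cucumber leaves dipped in compound solution (DMF solvent, polyoxyethylene alkyl phenyl ether emulsifier), air-dried, and placed with five second-instar larvae in cups on sterilized soil at 25° C. Dead larvae counted after 7 days; activity expressed as percent larvae killed.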

[2] = tested on: Lucilia cuprina 1st instar larvae; experiment: whole plant or invertebrate; assay type: in vivo; conditions: for mortality at 100 ppm: Lucilia cuprina, 48 h, read-out: activity (percentage of larval mortality); for activity (percentage of larval mortality): application rate of 100 ppm, after 48 hrs
Method: species: Lucilia cuprina 1st instar larvae (age 24 hrs)
solvent: dimethyl sulfoxide
Serial dilutions are made to obtain the desired rates. Approximately 20 Lucilia cuprina 1st instar larvae are transferred into a test tube containing 1 cm^3 of minced horse meat and 0.5 ml aqueous dilution of test compound. After 48 hrs percentage of larval mortality are recorded. 100% efficacy=all larvae are killed, […].

[3] = tested on: Two-Spotted Spider Mite (Tetranychus Urticae); experiment: Test against two-spotted spider mite (Tetranychus urticae), spray; assay type: in vivo; conditions: active compound concentration of 100 ppm; adult mites; after 7 days
Excerpt: Solvent: 3 parts by weight of dimethylformamide
Emulsifier: 1 part by weight of polyoxyethylene alkyl phenyl ether

[4] = tested on: Tobacco Cutworm (Spodoptera litura) Larvae; experiment: Test against tobacco cutworm (Spodoptera litura) larvae, leaf dip; assay type: in vivo; conditions: active compound concentration of 100 ppm, third instar larvae, after 7 days; for pest or weed control at 100 ppm: Spodoptera litura, foliar, 168 h, read-out: insecticidal activity
Summary of the method: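 Sweet potato leaves were dipped in the test solution (DMF solvent, polyoxyethylene alkyl phenyl ether emulsifier), air-dried and offered to ten third-instar larvae per dish at 25 °C, with fresh leaves added on days 2 and 4. Mortality was counted at day 7 and expressed as % insecticidal activity (100% = all dead).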

Ctenocephalides felis = experiment: whole plant or invertebrate; assay type: in vivo; conditions: for mortality at 100 ppm: Ctenocephalides felis, in Bos taurus, 48 h, read-out: activity (mortality in %); for activity (mortality in %): application rate of 100 ppm in cattle blood, after 2 days
Method: (§1) Solvent: dimethyl sulfoxide
Approximately 20 adult unfed (Ctenocepahlides felis) are placed in flea chambers. […] The blood chamber is heated to 37° C. whereas the flea chamber is kept at room temperature.

Boophilus microplus = Boophilus microplus test (injection); assay type: in vivo; conditions: Rhipicephalus microplus, 168 h, read-out: activity (mortality in %; 100% means that all eggs are infertile)
Method: as §1
Five adult engorged female ticks (Boophilus microplus) are injected with […] compound solution into the abdomen. Ticks are transferred into replica plates and incubated in a climate chamber for a period of time. Egg deposition of fertile eggs is monitored.
After 7 days mortality in % is determined. 100% means that all eggs are infertile; 0% means that all eggs are fertile. […]

Musca domestica = experiment: whole plant or invertebrate; conditions: 48 h, read-out: activity (mortality in %)
Method: as §1
Prior to the assay, a piece of kitchen sponge is soaked with a mixture of sugar and compound solution and placed into a container. 10 adults (Musca domestica) are placed into the container and closed with a perforated lid. After 2 days mortality in % is determined 100% means that all the flies have been killed; 0% means that none of the flies have been killed.

SMILES | pest or weed control at 100 ppm [1] [%] | mortality at 100 ppm [2] [%] | acaricidal activity [3] [%] | pest or weed control at 100 ppm [4] [%] | mortality at 100 ppm (Ctenocephalides felis) [%] | mortality at 0.02 mg (Boophilus microplus) [%] | mortality at 100 ppm (Musca domestica) [%] | insecticidal activity [1] [%] | activity (percentage of larval mortality) [2] [%] | insecticidal activity [4] [%] | activity (mortality in %) (Ctenocephalides felis) [%]
CCc1cc(C(F)(C(F)(F)F)C(F)(F)F)cc(C)c1NC(=O)c1ccc(-n2cncn2)cc1 [Compound 1-31, N-[2-ethyl-4-(1,1,1,2,3,3,3-heptafluoropropan-2-yl)-6-methylphenyl]-4-(1H-1,2,4-triazol-1-yl)benzamide] | 100 | 100 | 100 | 100 | 90 | 100 |  |  |  |  | 
CCc1cc(C(F)(C(F)(F)F)C(F)(F)F)cc(C)c1NC(=O)c1ccc(-n2cncn2)c(N)c1 [Compound 1-38, 3-amino-N-[2-ethyl-4-(1,1,1,2,3,3,3-heptafluoropropan-2-yl)-6-methylphenyl]-4-(1H-1,2,4-triazol-1-yl)benzamide] |  | 100 |  | 100 | 100 | 100 |  |  |  |  | 
CCc1cc(C(F)(C(F)(F)F)C(F)(F)F)cc(C)c1NC(=O)c1ccc(-n2cncn2)c([N+](=O)[O-])c1 [Compound 1-39, N-[2-ethyl-4-(1,1,1,2,3,3,3-heptafluoropropan-2-yl)-6-methyl-phenyl]-3-nitro-4-(1H-1,2,4-triazol-1-yl)benzamide] |  | 100 | 100 | 100 | 100 | 100 | 100 |  |  |  | 
CCc1cc(C(F)(C(F)(F)F)C(F)(F)F)cc(C)c1NC(=O)c1ccc(-n2cncn2)c(NC(=O)OC)c1 [Compound 1-47, Methyl[5-{[2-ethyl-4-(1,1,1,2,3,3,3-heptafluoropropan-2-yl)-6methylphenyl]carbamoyl}-2-(1H-1,2,4-triazol-1-yl)phenyl]carbamate] | 100 |  |  | 100 | 90 | 100 |  |  |  |  | 
CCc1cc(C(F)(C(F)(F)F)C(F)(F)F)cc(C)c1NC(=O)c1ccc(-n2cncn2)c(C#N)c1 [Compound 1-49, 3-cyano-N-[2-ethyl-4-(1,1,1,2,3,3,3-heptafluoropropan-2-yl)-6-methylphenyl]-4-(1H-1,2,4-triazol-1-yl)benzamide] | 100 | 100 | 100 | 100 | 95 | 100 |  |  |  |  | 
O=C(Nc1c(Br)cc(C(F)(C(F)(F)F)C(F)(F)F)cc1Br)c1ccc(-n2cncn2)cc1 [Compound 1-78, N-[2,6-dibromo-4-(1,1,1,2,3,3,3-heptafluoropropan-2-yl)-phenyl]-4-(1H-1,2,4-triazol-1-yl)benzamide] | 100 | 100 | 100 | 100 | 100 | 100 | 100 |  |  |  | 
CCc1cc(C(F)(C(F)(F)F)C(F)(F)F)cc(C)c1NC(=O)c1ccc(CNC(C)=O)cc1 [Compound 5-28, 4-(acetamidomethyl)-N-[2-ethyl-4-(1,1,1,2,3,3,3-heptafluoro-propan-2-yl)-6-methylphenyl]benzamide] |  |  | 100 | 100 | 100 | 100 |  |  |  |  | 
CCc1cc(C(F)(C(F)(F)F)C(F)(F)F)cc(C)c1NC(=O)c1ccc(CNC(=O)c2cccnc2F)c(Cl)c1 [Compound 5-82] |  |  | 100 |  |  |  |  | 100 | 95 | 100 | 
CCC(=O)NCc1ccc(C(=O)Nc2c(C)cc(C(F)(C(F)(F)F)C(F)(F)C(F)(F)F)cc2CC)cc1 (stereo not shown) [Compound 5-139] |  |  |  |  |  |  |  | 100 |  | 100 | 98
CCc1cc(C(F)(C(F)(F)F)C(F)(F)C(F)(F)F)cc(C)c1NC(=O)c1ccc(CNC(=O)CC(F)(F)F)cc1 (stereo not shown) [Compound 5-142] |  |  |  |  |  |  |  | 100 | 95 | 100 | 
CCc1cc(C(F)(C(F)(F)F)C(F)(F)C(F)(F)F)cc(C)c1NC(=O)c1ccc(CNC(=O)C2CC2)c(Br)c1 (stereo not shown) [Compound 5-159] |  |  |  |  |  |  |  |  |  | 100 | 98
CCc1cc(C(F)(C(F)(F)F)C(F)(F)C(F)(F)F)cc(C)c1NC(=O)c1ccc(CNC(=O)c2cccnc2F)c(F)c1 (stereo not shown) [Compound 5-174] |  |  |  |  |  |  |  | 100 | 95 | 100 | 
CCc1cc(C(F)(C(F)(F)F)C(F)(F)F)cc(C)c1NC(=O)c1ccc(CN2C(=O)c3ccccc3C2=O)cc1 [Compound F-4, 4-[(1,3-dioxo-1,3-dihydro-2H-isoindol-2-yl)methyl]-N-[2-ethyl-4-(1,1,1,2,3,3,3-hepta-fluoropropan-2-yl)-6-methylphenyl]benzamide] |  | 90 |  |  |  | 100 |  |  |  |  | 
CCc1cc(C(F)(C(F)(F)F)C(F)(F)F)cc(C)c1NC(=O)c1ccc(C#N)c(C)c1 [Compound I-5, 4-cyano-N[2-ethyl-4-(1,1,1,2,3,3,3-heptafluoropropan-2-yl)-6-methylphenyl]-3-methylbenzamide] | 100 | 100 |  | 100 |  | 100 |  |  |  |  | 
